Data reported in ChEMBL document CHEMBL3507680, “University of Dundee, Gates Library screen for HepG2 cell viability”.

Test: Human HepG2 cell viability assay in 384 well format
Assay type: toxicity, cell-based
Parameters: dose 125 nL, time 70.5 hour; concentration not given beside the values
Conditions: HepG2 cells, read-out: Inhibition

Row | SMILES | cytotoxicity at 70.5 h
1 | Cc1nc(C)n(CC2CCCN2CC(=O)Nc2c(C)n[nH]c2C)n1 (configuration not stated) | -1.18%
2 | COCc1ccccc1CNC(=O)CN1CCCC1c1noc(C)n1 (configuration not stated) | -2.27%
3 | Cc1cccc(OCCNC(=O)CN2CCCC2c2noc(C)n2)c1 (configuration not stated) | -4.91%
4 | Cn1cc(Cl)cc1C(=O)N1CCN(Cc2cccs2)CC1 | -12.6%
5 | Cc1oc(C)c(C(=O)NCc2cccnc2)c1C | -14.1%
6 | Cc1oc(C)c(C(=O)NCc2ccccc2CN(C)C)c1C | 16.8%
7 | Cc1ccc(C(=O)NCCCNc2ccc(C(F)(F)F)cn2)cc1 | -9.05%
8 | O=C(NCCCNc1ccc(C(F)(F)F)cn1)c1ccccc1 | -8.08%
9 | Nc1nccnc1C(=O)NCCCNc1ccc(C(F)(F)F)cn1 | 2.59%
10 | CN(C)c1ccc(C(=O)NCCCNc2ccc(C(F)(F)F)cn2)cc1 | -13%
11 | CC(C)C(=O)NCCNC(=O)CCOc1cccc(F)c1 | -11.3%
12 | CCOc1ncccc1CNC(=O)c1c(C)oc(C)c1C | -9.43%
13 | CCCc1nnc(NC(=O)Cc2c(C)nc(C)[nH]c2=O)s1 | -6.43%
14 | CC(OCc1ccccc1)C(=O)NCc1ccc(N(C)C)cc1 (configuration not stated) | -12.6%
15 | CN(C)c1cc(CNC(=O)c2cccnc2O)ccn1 | -12.1%
16 | Cc1ccc(C(=O)N2CCCC(c3nncn3C)C2)c(C)c1 (configuration not stated) | -4.5%
17 | Cc1nn(C)c(N2CCOCC2)c1CNCc1ccc2c(c1)OCO2 | -5.61%
18 | O=C(CCc1nccs1)N1CCN(c2ccc(Cl)cn2)CC1 | -5.57%
19 | O=C(Cc1ccccn1)N1CCN(C(=O)CC2CCCCC2)CC1 | -2.98%
20 | Cc1nc(CN2CCCN(C(=O)c3c(C)oc(C)c3C)CC2)cs1 | -10%
21 | Cc1nn(C)c(N2CCOCC2)c1CNCc1ccc(C(C)O)cc1 (configuration not stated) | -11.7%
22 | c1cnnc(N2CCCC(NCc3ccncc3)C2)c1 (configuration not stated) | -4.07%
23 | COc1cccc(COCC(=O)N2CCCC(n3cccn3)C2)c1 (configuration not stated) | -4.65%
24 | Cc1ccc(N2CCCC(NCc3ccc(-n4ccnc4)cc3)C2)nn1 (configuration not stated) | 17.4%

Row | SMILES | cytotoxicity at 70.5 h
25 | FC(F)(F)c1ccc(CN2CCN(Cc3cscn3)CC2)cc1 | -12.5%
26 | COc1ccc(OC)c(C(=O)N(C)Cc2ncc(C)c(OC)c2C)c1 | -9%
27 | Cc1ccn2ncc(C(=O)N3CCCC(n4nc(C)nc4C)C3)c2n1 (configuration not stated) | -5.04%
28 | COc1ccc(F)cc1C(=O)N1CCCC(n2nc(C)nc2C)C1 (configuration not stated) | -9.24%
29 | CCc1nc2n(n1)CC(NCc1nc(-c3cccnc3)no1)CC2 (configuration not stated) | -10.5%
30 | O=C(CCNC(=O)c1ccoc1)Nc1cccc(F)c1 | -6.83%
31 | O=C(CCNC(=O)c1ccoc1)Nc1cc(F)ccc1F | -5.4%
32 | O=C(CCNC(=O)c1ccoc1)Nc1cc(F)cc(F)c1 | -10.4%
33 | Cn1cnnc1C1CCCN(C(=O)c2ccc3c(c2)OCCO3)C1 (configuration not stated) | -4.4%
34 | COCCOc1ccc(NC(=O)N2CCCC2c2cccs2)cn1 (configuration not stated) | -4.81%
35 | Cc1cccc(OCCCNC(=O)NC(C)c2nncn2C)c1 (configuration not stated) | -6.42%
36 | Cc1nc(NC(=O)CN2CCOC(Cn3cccn3)C2)sc1C (configuration not stated) | -7.06%
37 | O=C(COc1cccnc1)N1CCCC(n2cccn2)C1 (configuration not stated) | -2.58%
38 | Cc1nc(C)n(C2CCCN(C(=O)c3nc(C)n4ccccc34)C2)n1 (configuration not stated) | -9.2%
39 | Cc1nc(C)n(C2CCCN(C(=O)c3cccc4cn[nH]c34)C2)n1 (configuration not stated) | -13.2%
40 | Cc1nc(C)n(C2CCCN(C(=O)c3cn4c(C)cccc4n3)C2)n1 (configuration not stated) | 19.8%
41 | CCSc1ccc(NC(=O)N2CCCC2c2ccncc2)cn1 (configuration not stated) | -8.21%
42 | O=C(CN1CCOC(Cn2cccn2)C1)Nc1ccncc1 (configuration not stated) | -3.63%
43 | Cc1nc2ccccc2nc1CN1CCCC1Cn1cccn1 (configuration not stated) | 20.6%
44 | Cc1nc(CN2CCCC(N(C)CC(=O)Nc3cccnc3)C2)no1 (configuration not stated) | 15.1%
45 | CC(C)c1nc(CN2CCC(CO)CC2)cs1 | 34.5%
46 | CCCN1CCN(C(=O)Cc2nc(-c3ccco3)oc2C)CC1 | -7.9%
47 | Cc1nc(CN2CCCC(N(C)Cc3nc(CC(C)C)no3)C2)no1 (configuration not stated) | -9.14%
48 | Cc1nc(CN(C)C2CCN(Cc3c(C)noc3C)C2)no1 (configuration not stated) | -8.91%

Row | SMILES | cytotoxicity at 70.5 h
49 | CN(Cc1cccc(F)c1)C(=O)CS(=O)(=O)Cc1ccc(Cl)c(Cl)c1 | -11.2%
50 | Cc1csc(CNC(=O)NCc2ccc3c(c2)OCCO3)n1 | -14.3%
51 | Cc1csc(CNC(=O)N(C)Cc2ccc3c(c2)OCO3)n1 | -9.49%
52 | CCOc1ccc(CC(CNC(=O)c2ccoc2C)C(N)=O)cc1 (configuration not stated) | -10.1%
53 | Cc1cccc(CS(=O)(=O)CC(=O)N(C)Cc2ccccc2F)c1 | -6.9%
54 | CC(C)c1nccn1C1CCCN(C(=O)c2ccc3[nH]cnc3c2)C1 (configuration not stated) | 8.82%
55 | CCCc1ccc(C(=O)N2CCn3c(nnc3C(C)C)C2)cc1 | -5.86%
56 | O=C(Nc1cc(F)ccc1OCC1CCCO1)c1ccoc1 (configuration not stated) | -2.66%
57 | COCCn1cc(C(=O)N2CCCC(n3cncn3)C2)ccc1=O (configuration not stated) | 8.17%
58 | O=C(Nc1ccccc1OCC1CCCCO1)c1ccc(O)nc1 (configuration not stated) | -13%
59 | COCc1nc(CN2CCOC(CN(C)c3cccnn3)C2)cs1 (configuration not stated) | 2.04%
60 | COc1ccc(-c2noc(CN3CC(n4cccn4)C3)n2)c(OC)c1 | -7.32%
61 | Cc1nc(C)c(CN2CCOC(CN(C)c3cccnn3)C2)s1 (configuration not stated) | -8.03%
62 | CCc1nnsc1C(=O)N1CCCN(Cc2ccc(F)cc2)CC1 | -9.04%
63 | CCc1nnsc1C(=O)N1CCCN(Cc2cnn(CC)c2)CC1 | -7.53%
64 | O=C(Cc1ccc2c(c1)OCCO2)N1CCCC(n2cncn2)C1 (configuration not stated) | -9.12%
65 | CCc1nc(C)c(C(=O)N2CCCN(Cc3cnn(C)c3)CC2)s1 | -9%
66 | Cc1nc(C2CCCN2Cc2nnc(Cc3ccccc3)o2)no1 (configuration not stated) | 2.42%
67 | Cc1nnc(N2CCC(CCN(C)C)CC2)c(C#N)c1C | -11.2%
68 | CC(C)C(=O)NCc1ccc(-n2cncn2)nc1 | -4.44%
69 | CCc1nnsc1C(=O)N1CCCN(Cc2ccc(C)cc2)CC1 | -8.18%
70 | CCCS(=O)(=O)NC1CCN(c2nnc(C)c(C)c2C#N)CC1 | -6.18%
71 | CC(=O)Nc1nc(C(=O)NC(C)c2cccnc2)cs1 (configuration not stated) | -6.5%
72 | Cc1cc(CN(C)C(=O)NCC2CCS(=O)(=O)C2)no1 (configuration not stated) | -9.21%

Row | SMILES | cytotoxicity at 70.5 h
73 | CS(=O)(=O)c1ccc(CNC(=O)NCC2CCOC2)cc1 (configuration not stated) | 4.53%
74 | CCC(C)C(=O)NCc1ccc(-n2cncn2)nc1 (configuration not stated) | -6.68%
75 | CCC(C)C(=O)NCc1cccc(N2CCCCC2=O)c1 (configuration not stated) | -4.37%
76 | CC(C(=O)NCc1cccc(N2CCCC2=O)c1)S(C)(=O)=O (configuration not stated) | 0.0426%
77 | O=C(CCc1ccc2c(c1)OCO2)N1CCCC(n2cccn2)C1 (configuration not stated) | 13.3%
78 | CCOc1ccccc1-c1noc(CN2CCOC(CN(C)C)C2)n1 (configuration not stated) | -10.8%
79 | Cc1nnc(N2CCCC(CS(N)(=O)=O)C2)c(C#N)c1C (configuration not stated) | -2.95%
80 | CCCOCC(=O)N1CCCN(Cc2csc(CC)n2)CC1 | 6.02%
81 | Cc1ccccc1CCNC(=O)N1CCCC(c2nncn2C)C1 (configuration not stated) | -9.14%
82 | Cc1ccc(C)c(NC(=O)C(C)N2CCCN(c3nccs3)CC2)c1 (configuration not stated) | -6.54%
83 | CCn1cnnc1C1CCN(C(=O)COc2ccc(Cl)cc2)CC1 | -9.99%
84 | CCc1nc(CN2CCN(C(=O)c3cc(C)no3)CC2)cs1 | -8.13%
85 | CCc1noc(C)c1C(=O)N1CCCN(Cc2csc(C)n2)CC1 | -9.45%
86 | CCc1nc(CN2CCCN(C(=O)c3cn[nH]c3C)CC2)cs1 | -6.19%
87 | CCOCC(O)CN1CCN(C(=O)c2cccc3[nH]ncc23)CC1 (configuration not stated) | -4.87%
88 | CCc1nc(CN2CCCN(C(=O)COC)CC2)cs1 | -6.47%
89 | COc1ccc(Cl)cc1C(=O)N(C)Cc1cc(C)on1 | -3.26%
90 | CC(C)c1cc(C(=O)NCCn2nc3ccccn3c2=O)n[nH]1 | -4.09%
91 | CC(C)Cc1cc(C(=O)NCCn2nc3ccccn3c2=O)[nH]n1 | -3.87%
92 | CCN(Cc1nc2c(cnn2C)c(=O)[nH]1)Cc1ccccc1C | 1.06%
93 | CC(C)(O)CN1CCN(C(=O)c2cccc3[nH]ncc23)CC1 | -1.27%
94 | Cc1nc(CC(=O)N2CCC(Nc3cccnn3)CC2)cs1 | -6.73%
95 | O=C(CN1CCN(c2ccc3nncn3n2)CC1)NC1CCCCC1 | -11.1%
96 | Cc1noc(C(C)N2CCN(Cc3cccc(C#N)c3)CC2)n1 (configuration not stated) | -5.03%

Row | SMILES | cytotoxicity at 70.5 h
97 | CC(C)c1noc(C(C)N2CCN(Cc3cccc(C#N)c3)CC2)n1 (configuration not stated) | -11%
98 | COc1ccccc1CC1CCCN(CC(=O)N2CCOCC2)C1 (configuration not stated) | -6.05%
99 | CCc1nnsc1C(=O)N1CCCN(Cc2nccn2C)CC1 | -21.7%
100 | CCc1nnsc1C(=O)N1CCCN(Cc2cnn(C)c2)CC1 | -27.3%
101 | CN(Cc1ncc(-c2ccccc2)o1)CC1CCCN1c1cccnn1 (configuration not stated) | -10.2%
102 | Cc1nc(C)n(CC2CCCCN2CC(=O)N(C)Cc2ccco2)n1 (configuration not stated) | -1.35%
103 | CCc1nc(CN2CCCN(C(=O)c3cn[nH]c3CC)CC2)cs1 | 12.4%
104 | Cc1n[nH]c(=O)c2c(NC(=O)CN3CCC(O)CC3)oc(C)c12 | 7.13%
105 | Cc1ccc(NC(=O)C(C)N2CCCN(c3nccs3)CC2)c(C)c1 (configuration not stated) | -7.1%
106 | Cc1ccccc1CN(C)Cc1nc2c(cnn2C)c(=O)[nH]1 | -7.81%
107 | O=C(NCCn1nc2ccccn2c1=O)c1cccc2[nH]ncc12 | -16.6%
108 | CN(Cc1nc2c(cnn2C)c(=O)[nH]1)Cc1ccc(F)cc1F | -10.6%
109 | Cc1ccc2cc(C(=O)NCCn3nc4ccccn4c3=O)[nH]c2c1 | 8.99%
110 | CC(C(=O)Nc1ncccn1)N1CCCN(c2nccs2)CC1 (configuration not stated) | -13.8%
111 | COc1ccc(F)cc1C(=O)N(C)Cc1cc(C)on1 | -15.7%
112 | CCc1nnc2n1CCN(Cc1csc(-c3ccc(C)o3)n1)C2 | -33.2%
113 | CC(C)(C)C(O)CN1CCN(C(=O)c2cccc3[nH]ncc23)CC1 (configuration not stated) | -3.16%
114 | CCc1nc(CN2CCCN(C(=O)CCSC)CC2)cs1 | -15.8%
115 | COCc1cccc(NS(=O)(=O)c2cc(C(=O)O)cs2)c1 | -12.7%
116 | COc1ccccc1OCCNCc1c(C)nn(C)c1N(C)C | -3.32%
117 | c1cnc(N2CCCC(NCc3ccc(-n4ccnc4)cc3)C2)nc1 (configuration not stated) | -4.91%
